Patent US20230390315A1, “COMPOSITIONS AND METHODS FOR TREATING ISCHEMIC CONDITIONS” (The Regents of the University of California, priority 2020, published 2023)

Columns and labels:
ERK and AKT = experiment: Western blot of ERK and AKT activation in HUVEC and hDMVECs; format: cell-based, human; details: 40 uM; HUVEC and hDMVECs
Method: Cells were allowed to reach 80% confluency in 12-well plates. […] At various time points, plates were taken out of the incubator and kept on ice. Cell monolayers were first washed once with ice-cold PBS before lysis with 250 μl of Pierce RIPA buffer (ThermoFisher Scientific, Rockford, IL) or use 50 mM Tris-HCl (pH 7.6), 150 mM NaCl, 10% Glycerol, 1% NP-40 containing protease/Phosphatase inhibitor cocktail (100×) (Cell signaling, #5872). Lysates were collected and mixed with 4×Bolt LDS Sample Buffer (Novex, Carlsbad, CA) in the presence of Halt protease inhibitors and phosphatase inhibitor cocktail (ThermoFisher scientific, #NP0007). The samples were subjected to SDS-PAGE (Bolt 4-12% Bis-Tris Plus, Invitrogen) using Bolt MES SDS running buffer or NuPAGE 3-8% Tris-Acetate gel using Tris-Acetate SDS running buffer (Novex). HUVECs (passage 6-8) were plated in EBM-2 basal medium (Lonza) with 0.2% FBS. […] Equal amounts of protein lysates were analyzed by SDS-PAGE and blotted with the indicated antibodies. Proteins were transferred using Tris-Glycine buffer with 20% Methanol (Proteonomics grade) (Apex BioResearch Products). Membranes were first incubated with 5% milk in TBST, pH 7.6 (TEKnova, Hollister, CA), followed by blotting with primary and secondary antibodies. […]

AML12 liver cells = experiment: AML12 proliferation assay; format: cell-based, mouse
Method: Proliferation assays with fibroblasts were done in low-glucose DMEM containing 1% FBS, with or without 10 ng/ml bFGF, or 100 ng/ml human EGF and the assay was ended at day 3. ARPE-19 cells were gently lifted with 0.025% trypsin and plated in RtEGM media (Clonetics) containing 2% FBS, L-glutamine, human bFGF and GA-1000. Once cells were attached to plates, serum-free RtEGM media was used to maintain the cultures. For proliferation assays, 1500 human RPE cells were plated into 96-well plates in low-glucose DMEM containing 1% FBS. A673, U87MG, Calu6 and AML12 cells were grown until confluent and were then harvested and re-suspended in appropriate assay media. For proliferation assays, cells were plated at the density of 1000-2000 cells/well in low-glucose DMEM containing 5% FBS or otherwise stated. Bovine pituitary cells (pituitary folliculostellate cells) were isolated as previously described. For proliferation assays with human epidermal keratinocytes, human DMVECs and human dermal fibroblast cells, 1000 cells/well were plated in low-glucose DMEM containing 1% FBS with or without various growth factors. The assay was ended at day 3 for bovine pituitary cells and at day 4 for all the other cell types. […] Four days later, tumor cell growth was measured by the MTS assay (Promega, Madison, WI), a colorimetric assay that measures metabolic activity of viable cells. […]

SMILES	activation of ERK and AKT (ERK and AKT)	cellular toxicity, sensitivity among cell types (AML12 liver cells; 5 mM level of ManN)	proliferation of AML12 (AML12 liver cells; alone or in combination with growth factors)
O=C1N[C@@H]2[C@@H](O)[C@@H](O)[C@H](O)[C@@H](CO)N2C1=O [Kif, Kifunensine, reference compound]	significantly activate		
N[C@H](C=O)[C@@H](O)[C@H](O)[C@H](O)CO [ManN, 2-Amino-2-deoxy-D-mannose]		most sensitive	no increases in proliferation
